Source: patent publication US12227500B2, “Substituted pyrrolo[2,3-b]pyridines for suppressing toxic endoplasmic reticulum stress” (THE TRUSTEES OF COLUMBIA UNIVERSITY IN THE CITY OF NEW YORK, priority 2018, dated 2025)
Read-outs that look alike come from different tables or passages of the source.

What was measured:
MLK3/MAP3K11 = target: T1, MLK3/MAP3K11 (Homo sapiens, UniProt Q16584); test: Radiolabeled ATP kinase assay (Reaction Biology Corp.), MLK3; assay type: biochemical; settings: [Cmpd] 0.1 μM; 10 μM ATP
T1 construct: purchased Reaction Biology Corp
Method: (§1) Meanwhile, the same analogs were analyzed in a radiolabeled ATP assay (10 μM ATP; Reaction Biology Corp.) to compare the extent to which they could inhibit the activity of HGK, MLK1, or MLK3 in a cell-free environment (Table S3 and S4).

[1] = tested on: human ES motor neurons carrying the ALS-causing SOD1^A4V mutation; test: cells; assay type: cell-based; settings: 72 h; for EC50 / Emax: CPA 33 μM; for viability at 1 µM: CPA (33 μM) + compound (1 μM), read-out: Motor Neuron Survival, % untreated; for Emax: read-out: Emax (MN survival % untreated)
Method: Next, survival assays were performed with all the analogs at once to generate a low-variability dataset. All compounds were evaluated at concentrations ranging from 0.1-3.0 μM (five-point dilution) in three technical replicates and two biological replicates.

HGK/MAP4K4 = HGK/MAP4K4 (Homo sapiens, UniProt O95819); test: Radiolabeled ATP kinase assay (Reaction Biology Corp.), HGK; assay type: biochemical; design: purchased Reaction Biology Corp; settings: 10 μM ATP, read-out: % Enzyme Activity (relative to DMSO controls), HGK/MAP4K4, Data 1; for remaining activity at 0.025 µM: [Cmpd] 0.025 μM; for remaining activity at 0.1 µM: [Cmpd] 0.1 μM
Method: as §1

MLK1/MAP3K9 = target: T2, MLK1/MAP3K9 (Homo sapiens, UniProt P80192); test: Radiolabeled ATP kinase assay (Reaction Biology Corp.), MLK1; assay type: biochemical; settings: [Cmpd] 0.1 μM, 10 μM ATP
T2 construct: purchased Reaction Biology Corp
Method: as §1

[2] = read-out: % Enzyme Activity Remaining (relative to DMSO controls), MLK1/MAP3K9, Data 1
[3] = read-out: % Enzyme Activity Remaining (relative to DMSO controls), MLK1/MAP3K9, Data 2
[4] = Homo sapiens, Neuron, read-out: EC50

T1 sequence (Q16584 whole entry): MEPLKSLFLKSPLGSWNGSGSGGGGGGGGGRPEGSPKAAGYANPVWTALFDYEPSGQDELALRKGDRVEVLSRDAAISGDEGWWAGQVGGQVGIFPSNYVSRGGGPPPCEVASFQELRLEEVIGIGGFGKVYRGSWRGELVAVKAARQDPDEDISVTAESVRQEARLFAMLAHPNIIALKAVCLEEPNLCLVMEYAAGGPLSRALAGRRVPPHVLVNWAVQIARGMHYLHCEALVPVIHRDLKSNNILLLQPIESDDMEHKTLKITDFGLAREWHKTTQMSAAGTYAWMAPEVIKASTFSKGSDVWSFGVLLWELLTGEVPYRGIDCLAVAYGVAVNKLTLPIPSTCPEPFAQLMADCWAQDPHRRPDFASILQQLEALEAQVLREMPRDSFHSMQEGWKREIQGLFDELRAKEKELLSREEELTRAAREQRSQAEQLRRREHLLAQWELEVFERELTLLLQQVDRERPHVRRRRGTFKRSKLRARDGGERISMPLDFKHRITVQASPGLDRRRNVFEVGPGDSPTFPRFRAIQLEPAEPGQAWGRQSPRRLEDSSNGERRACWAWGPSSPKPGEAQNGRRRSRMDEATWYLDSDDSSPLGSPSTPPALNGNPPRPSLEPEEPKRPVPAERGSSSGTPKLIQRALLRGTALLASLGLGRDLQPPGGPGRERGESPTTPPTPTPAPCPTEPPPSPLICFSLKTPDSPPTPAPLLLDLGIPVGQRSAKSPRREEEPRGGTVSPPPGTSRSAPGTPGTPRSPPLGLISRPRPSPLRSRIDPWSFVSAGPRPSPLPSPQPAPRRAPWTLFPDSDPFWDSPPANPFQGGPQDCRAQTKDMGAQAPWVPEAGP
T2 sequence (P80192 whole entry): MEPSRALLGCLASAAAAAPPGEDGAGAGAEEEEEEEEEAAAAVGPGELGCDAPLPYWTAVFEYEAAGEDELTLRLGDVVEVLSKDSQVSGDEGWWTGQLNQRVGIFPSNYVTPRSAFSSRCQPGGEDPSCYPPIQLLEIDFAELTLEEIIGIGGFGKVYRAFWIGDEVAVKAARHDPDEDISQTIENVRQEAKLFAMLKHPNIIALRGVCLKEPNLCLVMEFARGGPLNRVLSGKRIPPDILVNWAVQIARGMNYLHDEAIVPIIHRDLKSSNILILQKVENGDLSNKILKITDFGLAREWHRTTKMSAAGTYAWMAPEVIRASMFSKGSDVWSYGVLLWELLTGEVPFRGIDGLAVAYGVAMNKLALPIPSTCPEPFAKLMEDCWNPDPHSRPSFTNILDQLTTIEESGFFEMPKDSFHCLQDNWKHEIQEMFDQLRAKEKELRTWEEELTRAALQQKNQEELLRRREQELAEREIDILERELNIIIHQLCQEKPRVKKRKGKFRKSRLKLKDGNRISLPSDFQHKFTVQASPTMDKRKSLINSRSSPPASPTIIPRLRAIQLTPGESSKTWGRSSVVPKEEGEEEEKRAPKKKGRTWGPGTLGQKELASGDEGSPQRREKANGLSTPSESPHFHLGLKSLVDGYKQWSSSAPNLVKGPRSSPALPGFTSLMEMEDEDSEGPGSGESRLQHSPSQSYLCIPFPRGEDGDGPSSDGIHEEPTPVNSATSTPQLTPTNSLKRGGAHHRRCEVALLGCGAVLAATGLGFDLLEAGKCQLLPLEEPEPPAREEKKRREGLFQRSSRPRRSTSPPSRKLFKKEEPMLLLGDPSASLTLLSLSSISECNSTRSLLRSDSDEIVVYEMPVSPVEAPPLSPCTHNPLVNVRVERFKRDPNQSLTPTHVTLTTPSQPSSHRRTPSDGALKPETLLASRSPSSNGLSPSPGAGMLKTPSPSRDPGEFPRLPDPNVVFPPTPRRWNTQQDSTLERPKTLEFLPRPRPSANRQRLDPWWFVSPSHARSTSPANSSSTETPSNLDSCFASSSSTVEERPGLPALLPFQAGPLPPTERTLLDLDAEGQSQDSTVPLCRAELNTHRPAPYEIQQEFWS
Sequence of HGK/MAP4K4 (O95819 whole entry): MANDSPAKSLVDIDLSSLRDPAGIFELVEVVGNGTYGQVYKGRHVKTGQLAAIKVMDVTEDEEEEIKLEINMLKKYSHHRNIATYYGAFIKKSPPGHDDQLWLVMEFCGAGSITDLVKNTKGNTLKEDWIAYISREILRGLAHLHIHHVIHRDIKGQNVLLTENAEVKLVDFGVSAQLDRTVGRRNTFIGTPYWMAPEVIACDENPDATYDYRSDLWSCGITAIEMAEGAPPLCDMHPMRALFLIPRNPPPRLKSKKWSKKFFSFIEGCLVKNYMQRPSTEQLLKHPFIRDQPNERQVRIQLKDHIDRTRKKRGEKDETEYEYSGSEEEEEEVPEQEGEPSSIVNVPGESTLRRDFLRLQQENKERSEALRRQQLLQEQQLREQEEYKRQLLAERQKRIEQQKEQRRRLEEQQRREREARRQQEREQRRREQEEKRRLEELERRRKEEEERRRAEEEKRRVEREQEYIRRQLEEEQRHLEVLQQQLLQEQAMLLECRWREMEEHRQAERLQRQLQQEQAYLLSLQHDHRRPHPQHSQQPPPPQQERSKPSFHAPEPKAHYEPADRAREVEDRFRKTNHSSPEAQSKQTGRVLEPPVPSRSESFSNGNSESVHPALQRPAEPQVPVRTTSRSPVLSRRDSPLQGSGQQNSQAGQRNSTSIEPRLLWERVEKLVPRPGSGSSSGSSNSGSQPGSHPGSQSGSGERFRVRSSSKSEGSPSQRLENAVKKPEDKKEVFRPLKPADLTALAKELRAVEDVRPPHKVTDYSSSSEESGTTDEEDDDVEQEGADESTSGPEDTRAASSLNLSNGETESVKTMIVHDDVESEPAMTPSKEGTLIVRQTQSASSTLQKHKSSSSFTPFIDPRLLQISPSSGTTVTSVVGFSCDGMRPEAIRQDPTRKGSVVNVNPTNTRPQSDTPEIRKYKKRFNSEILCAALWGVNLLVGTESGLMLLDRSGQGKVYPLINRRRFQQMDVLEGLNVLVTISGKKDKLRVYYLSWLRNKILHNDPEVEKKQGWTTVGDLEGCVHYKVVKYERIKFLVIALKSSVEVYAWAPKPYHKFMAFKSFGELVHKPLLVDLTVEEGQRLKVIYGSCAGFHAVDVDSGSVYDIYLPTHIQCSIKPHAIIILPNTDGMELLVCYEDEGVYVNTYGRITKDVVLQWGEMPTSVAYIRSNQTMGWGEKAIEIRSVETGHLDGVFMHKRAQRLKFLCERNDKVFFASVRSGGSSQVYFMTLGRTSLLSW

| Compound | % Enzyme Activity Remaining (relative to DMSO controls), MLK3/MAP3K11, Data 1 (MLK3/MAP3K11) | % Enzyme Activity Remaining (relative to DMSO controls), MLK3/MAP3K11, Data 2 (MLK3/MAP3K11) | EC50 [1] | viability at 1 µM ([1]; Homo sapiens, Neuron) | Emax ([1]; Homo sapiens, Neuron) | remaining activity at 0.025 µM (HGK/MAP4K4) | remaining activity at 0.1 µM (HGK/MAP4K4) | remaining activity at 0.1 µM (MLK1/MAP3K9; [2]) | remaining activity at 0.1 µM (MLK1/MAP3K9; [3]) | EC50 [1, 4] |
| --- | --- | --- | --- | --- | --- | --- | --- | --- | --- | --- |
| CN1CCN(Cc2ccc(-c3cnc4[nH]ccc4c3)cc2)CC1 [Compound 4, 5-(4-((4-Methylpiperazin-1-yl)methyl)phenyl)-1H-pyrrolo[2,3-b]pyridine] | 91.95% | 94.97% | Ambiguous | 10.3% | 13.7% | 101% | 88.3% | 95.9% | 93.5% |  |
| CN1CCN(Cc2ccc(-c3cnc4[nH]cc(-c5cccc(C(F)(F)F)c5)c4c3)cc2)CC1 [Compound 7ab, 5-(4-((4-Methylpiperazin-1-yl)methyl)phenyl)-3-(3-(trifluoromethyl)phenyl)-1H-pyrrolo[2,3-b]pyridine] | 68.47% | 70.51% |  | 60.7% | 60.7% | 26.6% | 4.65% | 83.7% | 82.9% | 1280 nM |
| CN1CCN(Cc2ccc(-c3cnc4[nH]cc(-c5ccccc5)c4c3)cc2)CC1 [Compound 7ac, 5-(4-((4-Methylpiperazin-1-yl)methyl)phenyl)-3-phenyl-1H-pyrrolo[2,3-b]pyridine] | 42.00% | 43.30% |  | 75.9% | 110% | 31.9% | 6.69% | 60.8% | 57.7% | 774 nM |
| CN1CCN(Cc2ccc(-c3cnc4[nH]cc(-c5ccc(Cl)cc5Cl)c4c3)cc2)CC1 [Compound 7ae, 3-(2,4-Dichlorophenyl)-5-(4-((4-methylpiperazin-1-yl)methyl)phenyl)-1H-pyrrolo[2,3-b]pyridine] | 84.17% | 86.93% |  | 32% | 32% | 67.9% | 42.7% | 92.5% | 91.8% | 533 nM |
| Cc1ccc(C)c(-c2c[nH]c3ncc(-c4ccc(CN5CCN(C)CC5)cc4)cc23)c1 [Compound 7af, 3-(2,5-Dimethylphenyl)-5-(4-((4-methylpiperazin-1-yl)methyl)phenyl)-1H-pyrrolo[2,3-b]pyridine] | 75.32% | 81.31% |  | 38.6% | 67.5% | 69% | 38.7% | 92.6% | 90.6% | 1340 nM |
| CN1CCN(Cc2ccc(-c3cnc4[nH]cc(-c5ccc6cnn(C)c6c5)c4c3)cc2)CC1 [Compound 7ag, 1-Methyl-6-(5-(4-((4-methylpiperazin-1-yl)methyl)phenyl)-1H-pyrrolo[2,3-b]pyridin-3-yl)-1H-indazole] | 54.67% | 52.80% |  | 73.3% | 88% | 32.5% | 7.91% | 50.9% | 50% | 418 nM |
| CNC(=O)Nc1cccc(-c2c[nH]c3ncc(-c4ccc(CN5CCN(C)CC5)cc4)cc23)c1 [Compound 7ak, 1-Methyl-3-(3-(5-(4-((4-methylpiperazin-1-yl)methyl)phenyl)-1H-pyrrolo[2,3-b]pyridin-3-yl)phenyl)urea] | 48.06% | 48.02% |  | 78.5% | 112% | 41.7% | 14.2% | 34.2% | 32.8% | 650 nM |
| COC(=O)Nc1cccc(-c2c[nH]c3ncc(-c4ccc(CN5CCN(C)CC5)cc4)cc23)c1 [Compound 7al, Methyl (3-(5-(4-((4-methylpiperazin-1-yl)methyl)phenyl)-1H-pyrrolo[2,3-b]pyridin-3-yl)phenyl)carbamate] | 32.96% | 30.90% |  |  | 113% | 33.8% | 6.76% | 33.4% | 32.7% | 670 nM |
| CNC(=O)Nc1ccc(-c2c[nH]c3ncc(-c4ccc(CN5CCN(C)CC5)cc4)cc23)cc1 [Compound 7am, 1-Methyl-3-(4-(5-(4-((4-methylpiperazin-1-yl)methyl)phenyl)-1H-pyrrolo[2,3-b]pyridin-3-yl)phenyl)urea] | 49.77% | 46.17% |  | 80% | 122% | 56% | 17.7% | 51% | 51.2% | 948 nM |
| COC(=O)Nc1ccc(-c2c[nH]c3ncc(-c4ccc(CN5CCN(C)CC5)cc4)cc23)cc1 [Compound 7an, Methyl (4-(5-(4-((4-methylpiperazin-1-yl)methyl)phenyl)-1H-pyrrolo[2,3-b]pyridin-3-yl)phenyl)carbamate] | 65.74% | 63.06% |  | 75% | 100% | 39.9% | 10.2% | 68.7% | 65.4% | 534 nM |
| COc1ccc(COc2ccc(-c3c[nH]c4ncc(-c5ccc(CN6CCN(C)CC6)cc5)cc34)cc2)cc1 [Compound 7ao, 3-(4-((4-Methoxybenzyl)oxy)phenyl)-5-(4-((4-methylpiperazin-1-yl)methyl)phenyl)-1H-pyrrolo[2,3-b]pyridine] | 35.75% | 32.77% | Ambiguous | 95.9% | 95.9% | 21.3% | 1.98% | 49% | 47.1% |  |
| CN1CCN(Cc2ccc(-c3cnc4[nH]cc(-c5cccc(OCc6ccccc6)c5)c4c3)cc2)CC1 [Compound 7ar, 3-(3-(Benzyloxy)phenyl)-5-(4-((4-methylpiperazin-1-yl)methyl)phenyl)-1H-pyrrolo[2,3-b]pyridine] | 44.17% | 45.09% |  | 37.4% | 37.4% | 55.5% | 27.4% | 70.1% | 68% | 583 nM |
| CN1CCN(Cc2ccc(-c3cnc4[nH]cc(-c5ccc(F)c(C(=O)NCc6ccco6)c5)c4c3)cc2)CC1 [Compound 7av, 2-Fluoro-N-(furan-2-ylmethyl)-5-(5-(4-((4-methylpiperazin-1-yl)methyl)phenyl)-1H-pyrrolo[2,3-b]pyridin-3-yl)benzamide] | 84.24% | 86.99% |  | 34.5% | 53.5% | 88.8% | 51.2% | 86% | 84.2% | 1050 nM |
| CN1CCN(Cc2ccc(-c3cnc4[nH]cc(-c5ccc(NC(=O)NC6CCCCC6)cc5)c4c3)cc2)CC1 [Compound 7aw, 1-Cyclohexyl-3-(4-(5-(4-((4-methylpiperazin-1-yl)methyl)phenyl)-1H-pyrrolo[2,3-b]pyridin-3-yl)phenyl)urea] | 65.23% | 66.67% |  | 27.5% | 27.5% | 85.4% | 58.5% | 79.8% | 79.4% | 406 nM |
